Laboratory results taken from patent EP0086092A2, “Antifungal compositions” (priority 1982, dated 1983).
Several values for one entry are separate records, joined by “and”; a condition that tells them apart may be missing. Equal values may be shown once. Marks after values point to notes of the source that are not given here.

Assays:
Assay in all cases: disc diffusion, zone of inhibition on seeded agar plates
Assay type in all cases: cell-based
[1] = system: Candida albicans B 311; details: for Zone Size / Zone Size B 311 / Zone Size Sabouarud Agar / Zone Size YNB agar: 16-18 h; for Zone Size / Zone Size B 311: 28-37°C; for Zone Size Sabouarud Agar / Zone Size YNB agar: Table II, 37°C; for Zone Size YNB agar: lysine
Procedure: The antifungal activity of aculeacin A and the compositions of aculeacin A and fatty acids was measured by disc diffusion.
The effects of a number of fatty acids on the antifungal activity of aculeacin A were determined by utilizing seeded plates of Candida albicans B 311 in yeast nitrogen base (YNB) agar (Difco) with glucose as the carbon source. A composition containing one unit by weight of aculeacin A and 5 units of fatty acid or the sodium salt thereof was spotted on the seeded plates and the size of the zone of inhibition after 16-18 hours incubation at 28-37 °C was measured.
Additional fatty acids were tested to determine , if they increased the intrinsic activity of aculeacin A against C. albicans B 311 utilizing seeded plates of YNB agar (Difco) with lysine as the carbon source and seeded plates of Sabouarud dextrose agar (Difco). Compositions containg one µg of aculeacin A and various amounts of the fatty acid was spotted on the seeded plates and the size of the zone of inhibition after 16-18 hours incubation at 37 °C was measured.
The antifungal effects of compositions containing a single amount of oleic acid as the sodium salt while varying the amounts of aculeacin A were determined by utilizing seeded plates of Candida albicans B 311 in Sabouarud dextrose agar and measuring the zone of inhibition after 16-18 hours incubation at 28-37°C.
(§1) The antifungal effects of compositions containing a single amount of aculeacin A while varying the amounts. of oleic acid as the sodium salt were determined by utilizing seeded plates of Candida albicans strains B 311, BC 759 and B 3153A and measuring the zone of inhibition after 16-18 hours at 28-37°C. This test was also performed with linoleic acid and linolenic acid.
(§2) The seeded plates of Candida albicans strains B 311, BC 759, and B 3153A were prepared by inoculating 50 ml of trypticase soy broth (BBL) with one ml of the preserved frozen culture and incubating the inoculum at 37°C for 7 hours on a rotary shaker. Two milliliters of this culture were used to inoculate one liter of Sabouarud dextrose agar (Difco) at 50°C and 15 milliliters of the resultant medium poured into 150 mm petri-dishes.

[2] = system: Candida albicans BC 759; details: Table IV-a; aculeacin A 0.40 µg, oleic acid 0 µg; 16-18 h, 28-37°C
Procedure: (§3) The antifungal activity of aculeacin A and the compositions of aculeacin A and fatty acids was measured by disc diffusion. Potentiation of antifungal activity was examined by three different methods employing: (1) a single concentration of aculeacin A and a single concentration of known fatty acids; '(2) various concentrations of aculeacin A with a single concentration of individual fatty acids; and (3) various concentrations of fatty acids with a single concentration of aculeacin A. The antifungal activities of aculeacin A and the fatty acids were separately checked as controls.
as §1, §2

[3] = system: Candida albicans B 3153A; details: Table IV-a; aculeacin A 0.40 µg, oleic acid 0 µg; 16-18 h, 28-37°C
Procedure: as §3, §1, §2

[4] = Table I, YNB agar, glucose as carbon source, composition of 1 unit by weight aculeacin A + 5 units fatty acid
[5] = Sabouarud dextrose agar, aculeacin A 0 µg, fatty acid 250 µg alone
[6] = Sabouarud dextrose agar, aculeacin A 0 µg, fatty acid 500 µg alone
[7] = Sabouarud dextrose agar, aculeacin A 0 µg, fatty acid 1000 µg alone
[8] = Sabouarud dextrose agar, composition of aculeacin A 1 µg + fatty acid 250 µg
[9] = Sabouarud dextrose agar, composition of aculeacin A 1 µg + fatty acid 500 µg
[10] = Sabouarud dextrose agar, composition of aculeacin A 1 µg + fatty acid 1000 µg
[11] = YNB agar, aculeacin A 0 µg, fatty acid 250 µg alone
[12] = YNB agar, aculeacin A 0 µg, fatty acid 500 µg alone
[13] = YNB agar, aculeacin A 0 µg, fatty acid 1000 µg alone
[14] = YNB agar, composition of aculeacin A 1 µg + fatty acid 250 µg
[15] = YNB agar, composition of aculeacin A 1 µg + fatty acid 500 µg
[16] = YNB agar, composition of aculeacin A 1 µg + fatty acid 1000 µg

Compound	Zone Size [1, 4] [mm]	Zone Size Sabouarud Agar [1, 5]	Zone Size Sabouarud Agar [1, 6]	Zone Size Sabouarud Agar [1, 7]	Zone Size Sabouarud Agar [1, 9]	Zone Size Sabouarud Agar [1, 10]	Zone Size YNB agar [1, 11]	Zone Size YNB agar [1, 12]	Zone Size YNB agar [1, 13]	Zone Size YNB agar [1, 15]	Zone Size YNB agar [1, 16] [mm]	also measured
CCCCC/C=C\C/C=C\CCCCCCCC(=O)O [Linoleic Acid]	23											Zone Size B 311 ([1]; Table IV-b, aculeacin A 0 µg, fatty acid 225 µg alone): Trace; Zone Size B 311 ([1]; Table IV-b, aculeacin A 0.625 µg + fatty acid 225 µg): 19 mm; Zone Size B 311 ([1]; Tables IV-b, IV-c, aculeacin A 0 µg, fatty acid 28.1 µg alone): 0 mm; Zone Size B 311 ([1]; Tables IV-b, IV-c, aculeacin A 0 µg, fatty acid 56.2 µg alone): 0 mm; Zone Size B 311 ([1]; Tables IV-b, IV-c, aculeacin A 0 µg, fatty acid 112.5 µg alone): 0 mm; Zone Size B 311 ([1]; Tables IV-b, IV-c, aculeacin A 0.625 µg + fatty acid 28.1 µg): 22 mm; Zone Size B 311 ([1]; Tables IV-b, IV-c, aculeacin A 0.625 µg + fatty acid 56.2 µg): 22 mm; Zone Size B 311 ([1]; Tables IV-b, IV-c, aculeacin A 0.625 µg + fatty acid 112.5 µg): 21 mm
CCCCCCCCCCCC(=O)O [Lauric Acid]	22											
CCCCC/C=C\C/C=C\C/C=C\C/C=C\CCCC(=O)O [Arachidonic Acid]		0 mm	0 mm	0 mm	20* mm	20* mm	0 mm	0 mm	0 mm	20 mm	26	Zone Size Sabouarud Agar [1, 8]: 20* mm; Zone Size YNB agar [1, 14]: 20 mm
CCCCCCCCCCCCCC(=O)O [Myristic Acid]	16											
CCCCCCCC/C=C\CCCCCCCCCCCC(=O)O [Erucic Acid]		0 mm	0 mm	0 mm	17 mm	Trace	0 mm	0 mm	0 mm	15 mm and 17 mm	15	
aculeacin A [reference compound]												Zone Size BC 759 [2]: 13 mm; Zone Size B 3153-A [3]: 12 mm; Zone Size ([1]; Table I, YNB agar, glucose as carbon source, aculeacin A alone, no fatty acid): 15 mm; Zone Size Sabouarud Agar ([1]; Sabouarud dextrose agar, aculeacin A 1 µg, no fatty acid): 13 mm and 15 mm; Zone Size YNB agar ([1]; YNB agar, aculeacin A 1 µg, no fatty acid): 15 mm and 16 mm; Zone Size ([1]; Table III, Sabouarud dextrose agar, aculeacin A 0.312 µg, oleic acid 0 µg): trace; Zone Size ([1]; Table III, Sabouarud dextrose agar, aculeacin A 0.625 µg, oleic acid 0 µg): 10 mm; Zone Size ([1]; Table III, Sabouarud dextrose agar, aculeacin A 1.25 µg, oleic acid 0 µg): 14-16 mm; Zone Size ([1]; Table III, Sabouarud dextrose agar, aculeacin A 2.5 µg, oleic acid 0 µg): 19 mm; Zone Size B 311 ([1]; Table IV-a, aculeacin A 0.40 µg, oleic acid 0 µg): 10 mm; Zone Size B 311 ([1]; Tables IV-b, IV-c, aculeacin A 0.625 µg, fatty acid 0 µg): 16 mm
γ-Linoleic Acid			0 mm	0 mm	20 mm	24 mm		0 mm	0 mm	14 mm	15	Zone Size Sabouarud Agar ([1]; Sabouarud dextrose agar, aculeacin A 0 µg, fatty acid 2000 µg alone): 0 mm; Zone Size Sabouarud Agar ([1]; Sabouarud dextrose agar, composition of aculeacin A 1 µg + fatty acid 2000 µg): 25 mm; Zone Size YNB agar ([1]; YNB agar, aculeacin A 0 µg, fatty acid 2000 µg alone): 0 mm; Zone Size YNB agar ([1]; YNB agar, composition of aculeacin A 1 µg + fatty acid 2000 µg): 22 mm; increase in the intrinsic activity of aculeacin A ([1]; composition of 2000 units by weight fatty acid to one unit aculeacin A, Table II test): surprising increase in the intrinsic activity of aculeacin A
CCCCCCCCCCC(O)C(=O)O (stereo not drawn) [α-Hydroxy Lauric Acid]		Trace	10 (hazy) mm	10 (hazy) mm	15 mm	20 mm	Trace	Trace	Trace	24 mm	25	Zone Size Sabouarud Agar [1, 8]: 15 mm; Zone Size YNB agar [1, 14]: 20 mm
CCCCCC/C=C\CCCCCCCC(=O)O [Palmitoleic Acid]	26											
